Source: US20240165112A1, “THERAPY FOR THE TREATMENT OF CANCER” (Bristol-Myers Squibb Company, priority 2022, published 2024)

Experiments:
Assay in all cases: 3D clonogenic assay in patient derived organoids
Format in all cases: cell-based, human
Conditions in all cases: 8 to 13 days
[1] = system: PAXF2131 organoid, Pancreatic cancer
Description: (§1) Five tumor cell lines (4T1.2, A549, EMT6, NCI-H460, and HT29) were treated with a range of paclitaxel or 5-FU concentrations in the presence of dimethlylsulfoxide (DMSO), 5 μM Compound 1, or 20 μM Compound 1. Cells were imaged 4 days after treatment and percent confluence was assessed by image quantification. EC50 values for cell confluence were used to assess chemotherapy potency. Eleven patient-derived tumor organoids (MAXFTN449, MAXFTN2990, PAXF1657, PAXF2131, CXF1256, CXF2129, CXF2061, LXFE2478, LXFE690, LXFA677, LXFA644) were seeded in a 3D matrix and treated with a range of paclitaxel, 5-FU, SN38, Gemcitabine, oxaliplatin, and carboplatin concentrations in the presence of DMSO, 5 μM Compound 1, or 20 μM Compound 1. After 8 to 13 days in culture, colonies were stained, imaged, and counted. A dose response curve was generated for chemotherapy alone or chemotherapy in combination with 5 or 20 μM Compound 1. Combination activity was defined as a percentage of the area under the chemotherapy dose response curve (cAUC) for Compound 1 combination groups compared to the cAUC of chemotherapy alone.
(§2) For combination experiments, working stock solutions of all compounds were prepared in DMSO at concentrations of 660-fold the highest test concentration used and stored at −20° C. Platin compounds were prepared freshly on each treatment day. On each day of an experiment, an aliquot of the working stock solutions was used and stored at room temperature prior to and during treatment. First, 1:2 dilutions of 660-fold concentrated working stocks were prepared in DMSO (in case of monotherapy controls), or equal amounts of the compound working stocks were mixed (in case of drug combinations). Then, different dilutions of these 330-fold concentrated solutions were prepared in DMSO to give an 8×2 matrix combination layout with conditions. The DMSO dilutions were further diluted […] into cell culture medium (IMDM, supplemented with 20% (v/v) fetal bovine serum, and 50 μg/mL gentamicin) in an intermediate dilution plate. Finally, 10 μL taken from the intermediate dilution plate were transferred to 140 μL of cells and medium per well of the final assay plate. Thus, the DMSO dilutions used for the mono- and the combination-treatment were diluted 1:660, and the DMSO concentration in the assay was […].
(§3) Tumors were passaged as subcutaneous xenografts in NMRI nu/nu mice. At a tumor volume of 400 to 1000 mm^3, tumor-bearing mice were euthanized, and tumors were collected under sterile conditions without delay. Tumors were mechanically disaggregated and subsequently incubated with an enzyme cocktail consisting of collagenase type IV (41 U/mL), DNase I (125 U/mL), hyaluronidase type III (100 U/mL), and dispase II (1 U/mL) in RPMI 1640 medium at 37° C. for 60 to 120 minutes. Cells were passed through sieves of 100 μm and 40 μm mesh size, and washed with RPMI 1640 medium. The percentage of viable cells was determined in a Neubauer-hemocytometer using trypan blue exclusion. Aliquots of the cells were frozen down and stored in liquid nitrogen vapor phase. On each day of an experiment, a frozen aliquot of tumor cells was thawed and used for preparation of assay plates.
(§4) The clonogenic assay was carried out in a 96 well plate format using ultra low attachment plates. For each test, plates were prepared as follows: each test well contained a layer of semi-solid medium with tumor cells (50 μL), and a second layer of medium supernatant with or without test compound (100 μL). The cell layer consisted of […] to 12.5×10^3 tumor cells per well, which were seeded in 50 μL/well cell culture medium (IMDM, supplemented with 20% (v/v) fetal bovine serum, 50 μg/mL gentamicin, and 0.4% (w/v) agar). After 24 hours, the soft-agar layer was covered with 90 μL of the same culture medium without agar, and 10 μL of control medium or test compound after serial dilution in DMSO for the duration of the experiment (continuous exposure, 100 μL drug overlay).

[2] = system: LXFA644 organoid, NSCLC (adenocarcinoma subtype)
Description: as §1, §2, §3, §4

[3] = system: CXF2129 organoid, colon cancer
Description: as §1, §2, §3, §4

[4] = system: LXFA677 organoid, NSCLC (adenocarcinoma subtype)
Description: as §1, §2, §3, §4

[5] = system: MAXFTN2990 organoid, breast cancer (triple negative)
Description: as §1, §2, §3, §4

[6] = system: CXF2061 organoid, colon cancer
Description: as §1, §2, §3, §4

[7] = system: LXFE690 organoid, NSCLC (squamous subtype)
Description: as §1, §2, §3, §4

[8] = system: CXF1256 organoid, colon cancer
Description: as §1, §2, §3, §4

[9] = system: PAXF1657 organoid, pancreatic cancer
Description: as §1, §2, §3, §4

[10] = system: MAXFTN449 organoid, breast cancer (triple negative)
Description: as §1, §2, §3, §4

[11] = system: LXFE2478 organoid, NSCLC (squamous subtype)
Description: as §1, §2, §3, §4

C[C@@H]1CC[C@@H](Nc2nc(NC(C)(C)C)ncc2C(N)=O)C[C@H]1O [Compound 1, 2-(tert-butylamino)-4-((1R,3R,4R)-3-hydroxy-4-methylcyclohexylamino)-pyrimidine-5-carboxamide]
% Reduction in Colony Formation with Compound 1 compared with DMSO, Mean ([1]; Compound 1, 5 μM): 62%
% Reduction in Colony Formation with Compound 1 compared with DMSO, Mean ([1]; Compound 1, 20 μM): 68%
% Reduction in Colony Formation with Compound 1 compared with DMSO, Mean ([2]; Compound 1, 5 μM): 12%
% Reduction in Colony Formation with Compound 1 compared with DMSO, Mean ([2]; Compound 1, 20 μM): 24%
% Reduction in Colony Formation with Compound 1 compared with DMSO, Mean ([3]; Compound 1, 5 μM): 56%
% Reduction in Colony Formation with Compound 1 compared with DMSO, Mean ([3]; Compound 1, 20 μM): 49%
% Reduction in Colony Formation with Compound 1 compared with DMSO, Mean ([4]; Compound 1, 5 μM): 27%
% Reduction in Colony Formation with Compound 1 compared with DMSO, Mean ([4]; Compound 1, 20 μM): 32%
% Reduction in Colony Formation with Compound 1 compared with DMSO, Mean ([5]; Compound 1, 5 μM): −8%
% Reduction in Colony Formation with Compound 1 compared with DMSO, Mean ([5]; Compound 1, 20 μM): 34%
% Reduction in Colony Formation with Compound 1 compared with DMSO, Mean ([6]; Compound 1, 5 μM): 8%
% Reduction in Colony Formation with Compound 1 compared with DMSO, Mean ([6]; Compound 1, 20 μM): 9%
% Reduction in Colony Formation with Compound 1 compared with DMSO, Mean ([7]; Compound 1, 5 μM): 73%
% Reduction in Colony Formation with Compound 1 compared with DMSO, Mean ([7]; Compound 1, 20 μM): 79%
% Reduction in Colony Formation with Compound 1 compared with DMSO, Mean ([8]; Compound 1, 5 μM): 90%
% Reduction in Colony Formation with Compound 1 compared with DMSO, Mean ([8]; Compound 1, 20 μM): 92%
% Reduction in Colony Formation with Compound 1 compared with DMSO, Mean ([9]; Compound 1, 5 μM): 31%
% Reduction in Colony Formation with Compound 1 compared with DMSO, Mean ([9]; Compound 1, 20 μM): 27%
% Reduction in Colony Formation with Compound 1 compared with DMSO, Mean ([10]; Compound 1, 5 μM): 56%
% Reduction in Colony Formation with Compound 1 compared with DMSO, Mean ([10]; Compound 1, 20 μM): 54%
% Reduction in Colony Formation with Compound 1 compared with DMSO, Mean ([11]; Compound 1, 5 μM): 39%
% Reduction in Colony Formation with Compound 1 compared with DMSO, Mean ([11]; Compound 1, 20 μM): 28%
